One test concerns the target T1, Cav2.2-CRMP2 interaction (Mus musculus, UniProt O55017).
T1 construct: a mouse neuronal cell line expressing both CRMP2 and Cav2.2; endogenous in cells; host or cells: mouse CAD cells (ECACC Cat #08100805)
In words: CRMP2 immunoprecipitation to detect Cav2.2 in CAD cells. Type of test: cell-based. How it is done:
(§1) Mouse neuron derived Cathecholamine A differentiated CAD cells (ECACC Cat #08100805, RRID: CVCL_0199) were grown in standard cell culture conditions, 37° C. in 5% (vol/vol) CO2. The cells were maintained in DMEM/F12 media supplemented with 10% (vol/vol) FBS (HyClone) and 1% penicillin/streptomycin sulfate from 10,000 μg/mL stock.
CAD cells were incubated overnight with a vehicle (0.1% DMSO) or CBD3063 (20 μM). The next day the cells were lysed into the IP buffer containing 20 mM Tris-HCl pH=7.4, 50 mM NaCl, 2 mM MgCl2, 10 mM N-Ethylmaleimide (NEM), 1% (vol/vol) NP-40, 0.5% (mass/vol) sodium deoxycholate, 0.1% (mass/vol) sodium dodecyl sulfate (SDS) with protease inhibitors (Cat #B14002, Biotool, Houston, TX), phosphatase inhibitors (Cat #B15002, Biotool, Houston, TX) and Nuclease (Cat #88701, Thermo Fisher Scientific, Waltham, MA). Total protein concentration was determined by BCA protein assay kit (Cat #PI23225, Thermo Fisher Scientific, Waltham, MA). Five hundred micrograms of total protein were incubated overnight with 2 μg of CRMP2 antibody (Cat #C2993, Sigma-Aldrich, St. Louis, MO) at 4° C. under gentle agitation. Protein G magnetic beads (Cat #10004D, Thermo Fisher Scientific, Waltham, MA), pre-equilibrated with the immunoprecipitation buffer, were then added to the lysates and incubated for 2 hours at 4° C. to capture immuno-complexes. […]

Test [1] has as its system rat model of spared nerve injury (SNI). Put plainly: Spared nerve injury (SNI) model, mechanical allodynia (von Frey paw withdrawal threshold). In kind it is in vivo. On the procedure: Rats were anesthetized with ketamine/xylazine 80/12 mg/kg intraperitoneally (i.p.) (Sigma-Aldrich, St. Louis, MO), and their head was placed in a stereotaxic frame. The cisterna magna was exposed and incised. As previously reported, an 8-cm catheter (PE-10; Stoelting, Wood Dale, IL) was implanted, terminating in the lumbar region of the spinal cord (Yaksh & Rudy, 1976). Catheters were sutured (using 3-0 silk sutures) into the deep muscle and externalized at the back of the neck. Autoclips were used to close the skin, and other surgeries were performed after a 5- to 7-day recovery period.
The neuropathic pain model induced by spared nerve injury (SNI) in rats was performed as previously described. Adult male rats (250 g, Envigo, Placentia, CA) were anesthetized with isoflurane (5% induction, 2% maintenance in 2 L/min air), and skin on the lateral surface of the left hind thigh was incised. Then, the biceps femoris muscle was dissected to expose the three terminal branches of the sciatic nerve. The common peroneal and tibial branches were tightly ligated with 4-0 silk and axotomized 2.0 mm distal to the ligation. Closure of the incision was made in two layers. The muscle was sutured once with 5-0 absorbable suture; skin was autoclipped. Animals were allowed to recover for 7 days before any testing. […]
Mechanical allodynia was assessed by measuring rats' paw withdrawal threshold in response to probing with a series of fine calibrated filaments (von Frey, Stoelting, Wood Dale, IL). Rats were placed in suspended plastic cages with wire mesh floor, and each von Frey filament was applied perpendicularly to the plantar surface of the paw. The “up-and-down” method (sequential increase and decrease of the stimulus strength) was used to determine the withdrawal threshold Dixon's nonparametric method was used for data analysis, as described by Chaplan et al., 1994. Data were expressed as the mean withdrawal threshold.

In another test the test system is CRMP2. In words: Immunoblot of CRMP2 phosphorylation in CAD cells. Type of test: cell-based, mouse. The following applies: overnight incubation of CBD3063 (20 µM). On the procedure:
as §1
Indicated samples were loaded on 4-20% Novex gels (cat. no. XP04205BOX; Thermo Fisher Scientific, Waltham, MA). Proteins were transferred to preactivated PVDF membranes for 1 hour at 100 V using TGS [25 mM Tris, pH 8.5, 192 mM glycine, 0.1% (mass/vol) SDS], 20% (vol/vol) methanol as transfer buffer (0.45 μm; Cat #IPVH00010; Millipore Sigma, St. Louis, MO). After transfer, the membranes were blocked at room temperature for 1 hour with TBST (50 mM Tris·HCl, pH 7.4, 150 mM NaCl, 0.1% Tween 20) with 5% (mass/vol) nonfat dry milk, and then incubated overnight at 4° C. separately with indicated primary antibodies, β111-Tubulin (Cat #G7121; Promega, Madison, WI), CRMP2 (Cat #C2993; Sigma-Aldrich, St. Louis, MO), Cav2.2 (Cat #TA308673; Origene, Rockville, MD), CRMP2 pSer522 (Cat #CP2191; ECM Biosciences, Versailles, KY), and CRMP2 pThr514 (Cat #PA5-110113; Invitrogen, Waltham, MA), in TBST, 5% (mass/vol) BSA. For examining the effect of CBD3063 on CRMP2 phosphorylation state, CAD cells were treated overnight with vehicle (0.1% DMSO) or CBD3063 (20 μM) and the next day cells were lysed using RIPA buffer. Approximately 40 μg of total proteins were loaded on an SDS-PAGE and then transferred to polyvinylidene difluoride membranes and blocked at room temperature for 1 hour. Primary antibodies used for probing were CRMP2 (Cat #C2993, Sigma-Aldrich, St Louis, MO), CRMP2 pThr514 (Cat #PB-043, Kinasource, Dundee, Scotland, United Kingdom), CRMP2 pSer522 (Cat #CP2191, ECM Biosciences, Versailles, KY), and CRMP2 pT555 (Cat #CP2251, ECM Biosciences, Versailles, KY).

Where [2] appears, read: single intrathecal 0.3 μg/kg, 7 days after SNI, male rats.

The results in this text go back to patent US20250017940A1, “SELECTIVE PEPTIDOMIMETIC MODULATORS OF CAV2.2 (N-TYPE) VOLTAGE-GATED CALCIUM CHANNELS AND USES THEREOF” (New York University, priority 2023, published 2025).

T1 sequence (O55017 whole entry): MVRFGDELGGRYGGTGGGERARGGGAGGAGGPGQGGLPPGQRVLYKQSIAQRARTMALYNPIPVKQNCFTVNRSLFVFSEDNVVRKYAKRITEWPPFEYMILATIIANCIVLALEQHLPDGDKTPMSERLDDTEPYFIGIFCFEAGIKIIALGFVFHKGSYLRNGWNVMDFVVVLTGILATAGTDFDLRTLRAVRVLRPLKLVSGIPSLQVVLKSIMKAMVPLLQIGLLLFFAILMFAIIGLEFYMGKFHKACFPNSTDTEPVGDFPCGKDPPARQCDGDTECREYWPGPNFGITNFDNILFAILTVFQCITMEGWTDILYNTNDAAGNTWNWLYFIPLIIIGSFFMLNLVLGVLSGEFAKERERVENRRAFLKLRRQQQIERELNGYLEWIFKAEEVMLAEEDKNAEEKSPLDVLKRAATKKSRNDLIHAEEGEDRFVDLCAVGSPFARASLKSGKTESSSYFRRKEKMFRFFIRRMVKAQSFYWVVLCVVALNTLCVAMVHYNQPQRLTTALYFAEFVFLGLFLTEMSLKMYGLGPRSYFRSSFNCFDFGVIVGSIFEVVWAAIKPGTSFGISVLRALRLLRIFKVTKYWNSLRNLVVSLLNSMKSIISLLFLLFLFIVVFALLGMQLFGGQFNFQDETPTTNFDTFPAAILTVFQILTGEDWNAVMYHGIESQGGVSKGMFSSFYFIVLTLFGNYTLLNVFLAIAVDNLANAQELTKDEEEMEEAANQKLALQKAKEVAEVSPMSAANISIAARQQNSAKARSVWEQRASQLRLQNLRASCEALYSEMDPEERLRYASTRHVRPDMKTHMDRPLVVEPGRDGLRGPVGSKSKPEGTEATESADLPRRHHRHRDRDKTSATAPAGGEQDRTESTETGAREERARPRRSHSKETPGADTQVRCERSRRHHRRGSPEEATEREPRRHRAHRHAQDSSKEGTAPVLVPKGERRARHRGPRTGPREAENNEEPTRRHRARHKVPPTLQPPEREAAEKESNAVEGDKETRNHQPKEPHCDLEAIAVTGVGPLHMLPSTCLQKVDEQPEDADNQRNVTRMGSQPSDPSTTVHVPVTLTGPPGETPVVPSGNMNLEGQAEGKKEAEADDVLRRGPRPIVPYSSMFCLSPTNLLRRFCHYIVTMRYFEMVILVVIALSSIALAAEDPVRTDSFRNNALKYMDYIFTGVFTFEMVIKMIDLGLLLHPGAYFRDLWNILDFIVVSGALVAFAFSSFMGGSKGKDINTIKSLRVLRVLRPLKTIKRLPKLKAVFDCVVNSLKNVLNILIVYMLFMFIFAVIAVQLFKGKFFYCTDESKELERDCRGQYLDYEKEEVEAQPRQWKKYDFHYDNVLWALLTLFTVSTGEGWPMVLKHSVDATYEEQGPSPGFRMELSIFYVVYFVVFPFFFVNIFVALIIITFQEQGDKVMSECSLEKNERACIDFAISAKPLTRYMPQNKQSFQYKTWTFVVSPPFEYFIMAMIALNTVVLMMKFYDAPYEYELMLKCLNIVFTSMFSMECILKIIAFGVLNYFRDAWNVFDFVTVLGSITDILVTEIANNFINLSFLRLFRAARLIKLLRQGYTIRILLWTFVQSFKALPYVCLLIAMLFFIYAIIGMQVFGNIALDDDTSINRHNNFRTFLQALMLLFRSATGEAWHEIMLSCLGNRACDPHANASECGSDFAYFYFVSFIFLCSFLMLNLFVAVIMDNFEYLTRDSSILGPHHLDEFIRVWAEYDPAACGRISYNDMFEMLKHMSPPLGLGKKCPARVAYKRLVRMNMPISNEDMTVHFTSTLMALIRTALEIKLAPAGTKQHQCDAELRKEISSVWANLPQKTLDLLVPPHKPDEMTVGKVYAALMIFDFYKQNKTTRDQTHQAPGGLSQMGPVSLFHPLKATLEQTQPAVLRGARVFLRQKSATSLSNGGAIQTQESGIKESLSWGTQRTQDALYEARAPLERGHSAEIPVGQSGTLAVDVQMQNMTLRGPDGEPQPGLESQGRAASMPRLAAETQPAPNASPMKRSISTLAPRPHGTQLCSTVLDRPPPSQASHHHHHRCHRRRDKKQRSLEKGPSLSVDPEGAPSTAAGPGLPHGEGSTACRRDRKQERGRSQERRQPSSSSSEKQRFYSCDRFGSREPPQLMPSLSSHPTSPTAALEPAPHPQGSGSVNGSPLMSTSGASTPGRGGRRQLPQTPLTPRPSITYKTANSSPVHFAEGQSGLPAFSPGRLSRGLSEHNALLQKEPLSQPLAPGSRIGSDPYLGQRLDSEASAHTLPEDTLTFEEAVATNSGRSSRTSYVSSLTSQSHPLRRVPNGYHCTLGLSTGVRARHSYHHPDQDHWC

With `CC(=O)N[C@@H]1CCCN(C(=O)NCCCNc2ccccn2)C1` [CBD3063, (3R)-3-acetamido-N-[3-(pyridin-2-ylamino)propyl]piperidine-1-carboxamide], the “relative Cav2.2 binding to CRMP2” value on Cav2.2-CRMP2 interaction (20 μM overnight (DMSO: 1.00±0.05)) is given as 0.64±0.02. Moreover, the “reduction in the level of Cav2.2 protein immunoprecipitated by CRMP2” value at Cav2.2-CRMP2 interaction (20 μM overnight, versus control) is listed as ~35%. Besides, the “tolerance (loss of antinociception)” value in test [1] (repeated i.t. 0.3 μg/kg once a day for 14 days) is reported as “without any tolerance”. The “duration of reversal of mechanical allodynia with repeated intrathecal dosage” value in test [1] (repeated i.t. 0.3 μg/kg, rats with chronic neuropathic pain) is > 14 days. Besides, the “area under the curve of paw withdrawal threshold” value in test [1] (repeated i.t. injection 0.3 μg/kg once a day for 14 days (DMSO: 3.37±0.86)) is on record as 47.26±8.22. The “area under the curve of paw withdrawal threshold” value in test [1] (single i.t. injection 0.3 μg/kg, 0.5 to 36 hours (DMSO: 7.650±0.84)) came to 57.05±3.84. Also, in test [1] (setting [2]), the “duration of reversal of mechanical allodynia” value is “up to 36 hours” and the “start of reversal of mechanical allodynia post-injection” value was 60 min. In addition, in the test with CRMP2, the “expression of phosphorylated CRMP2 at site 514 (GSK-3β)” value is listed as “no differences”, the “expression of phosphorylated CRMP2 at site 522 (Cdk5)” value is on record as “no differences” and the “expression of phosphorylated CRMP2 at site 555 (RhoK)” value was “no differences”.
